Laboratory results published in the NIST ThermoML archive (doi:10.1021/acs.jced.8b00438).

Assay: xn = mol fraction of the nth substance listed
Details: 100 kPa, Liquid; for viscosity: Falling or rolling sphere viscometry; for mass density: Vibrating tube method

CCCCCCCCCCCC [dodecane] + CCCCO
Details	mass density [kg/m3]	viscosity [mPa·s]
293.15 K, x1 = 0.1045	794.67	2.478
293.15 K, x1 = 0.2008	784.43	2.167
293.15 K, x1 = 0.3002	776.26	1.935
293.15 K, x1 = 0.3985	769.8	1.772
293.15 K, x1 = 0.4995	764.28	1.64
293.15 K, x1 = 0.5978	759.94	1.561
293.15 K, x1 = 0.7012	755.99	1.494
293.15 K, x1 = 0.7671	754.1	1.476
293.15 K, x1 = 0.8773	751.22	1.458
293.15 K, x1 = 1	748.83	1.491
298.15 K, x1 = 0.1045	790.86	2.183
298.15 K, x1 = 0.2008	780.62	1.919
298.15 K, x1 = 0.3002	772.45	1.722
298.15 K, x1 = 0.3985	765.97	1.588
298.15 K, x1 = 0.4995	760.49	1.477
298.15 K, x1 = 0.5978	756.17	1.414
298.15 K, x1 = 0.7012	752.24	1.359
298.15 K, x1 = 0.7671	750.38	1.345
298.15 K, x1 = 0.8773	747.52	1.331
298.15 K, x1 = 1	745.22	1.366
303.15 K, x1 = 0.1045	787.01	1.934
303.15 K, x1 = 0.2008	776.76	1.709
303.15 K, x1 = 0.3002	768.59	1.543
303.15 K, x1 = 0.3985	762.12	1.43
303.15 K, x1 = 0.4995	756.67	1.338
303.15 K, x1 = 0.5978	752.37	1.287
303.15 K, x1 = 0.7012	748.47	1.242
303.15 K, x1 = 0.7671	746.62	1.231
303.15 K, x1 = 0.8773	743.81	1.22
303.15 K, x1 = 1	741.59	1.257
308.15 K, x1 = 0.1045	783.13	1.721
308.15 K, x1 = 0.2008	772.86	1.529
308.15 K, x1 = 0.3002	764.7	1.388
308.15 K, x1 = 0.3985	758.24	1.295
308.15 K, x1 = 0.4995	752.82	1.218
308.15 K, x1 = 0.5978	748.54	1.177
308.15 K, x1 = 0.7012	744.67	1.141
308.15 K, x1 = 0.7671	742.85	1.132
308.15 K, x1 = 0.8773	740.07	1.124
308.15 K, x1 = 1	737.95	1.154
313.15 K, x1 = 0.1045	779.2	1.537
313.15 K, x1 = 0.2008	768.93	1.373
313.15 K, x1 = 0.3002	760.78	1.254
313.15 K, x1 = 0.3985	754.33	1.177
313.15 K, x1 = 0.4995	748.93	1.114
313.15 K, x1 = 0.5978	744.69	1.082
313.15 K, x1 = 0.7012	740.88	1.051
313.15 K, x1 = 0.7671	739.06	1.045
313.15 K, x1 = 0.8773	736.32	1.04
313.15 K, x1 = 1	734.31	1.076
318.15 K, x1 = 0.1045	775.23	1.379
318.15 K, x1 = 0.2008	764.95	1.239
318.15 K, x1 = 0.3002	756.81	1.138
318.15 K, x1 = 0.3985	750.39	1.075
318.15 K, x1 = 0.4995	745.02	1.022
318.15 K, x1 = 0.5978	740.81	0.997
318.15 K, x1 = 0.7012	737.02	0.972
318.15 K, x1 = 0.7671	735.24	0.968
318.15 K, x1 = 0.8773	732.55	0.964
318.15 K, x1 = 1	730.66	1.003
323.15 K, x1 = 0.1045	771.21	1.241
323.15 K, x1 = 0.2008	760.93	1.122
323.15 K, x1 = 0.3002	752.8	1.038
323.15 K, x1 = 0.3985	746.41	0.985
323.15 K, x1 = 0.4995	741.07	0.942
323.15 K, x1 = 0.5978	736.9	0.923
323.15 K, x1 = 0.7012	733.15	0.902
323.15 K, x1 = 0.7671	731.4	0.9
323.15 K, x1 = 0.8773	728.77	0.899
323.15 K, x1 = 1	727	0.936
328.15 K, x1 = 0.1045	767.14	1.121
328.15 K, x1 = 0.2008	756.86	1.02
328.15 K, x1 = 0.3002	748.75	0.949
328.15 K, x1 = 0.3985	742.38	0.906
328.15 K, x1 = 0.4995	737.08	0.871
328.15 K, x1 = 0.5978	732.96	0.856
328.15 K, x1 = 0.7012	729.25	0.84
328.15 K, x1 = 0.7671	727.53	0.839
328.15 K, x1 = 0.8773	724.96	0.839
328.15 K, x1 = 1	723.33	0.877
333.15 K, x1 = 0.1045	763.01	1.017
333.15 K, x1 = 0.2008	752.73	0.931
333.15 K, x1 = 0.3002	744.64	0.871
333.15 K, x1 = 0.3985	738.31	0.837
333.15 K, x1 = 0.4995	733.06	0.808
333.15 K, x1 = 0.5978	728.98	0.797
333.15 K, x1 = 0.7012	725.32	0.784
333.15 K, x1 = 0.7671	723.64	0.785
333.15 K, x1 = 0.8773	721.13	0.785
333.15 K, x1 = 1	719.65	0.823

C1CCC(C2CCCCC2)CC1 [1,1'-bicyclohexyl] + CCCCCCCCCCCC
Details	mass density [kg/m3]	viscosity [mPa·s]
293.15 K, x2 = 0	886.05	4.003
293.15 K, x2 = 0.1055	869.17	3.406
293.15 K, x2 = 0.2016	854.56	3
293.15 K, x2 = 0.3019	839.7	2.637
293.15 K, x2 = 0.398	825.91	2.369
293.15 K, x2 = 0.5006	811.71	2.166
293.15 K, x2 = 0.5953	798.95	1.998
293.15 K, x2 = 0.6911	786.49	1.839
293.15 K, x2 = 0.7985	772.97	1.697
293.15 K, x2 = 0.8888	761.97	1.62
298.15 K, x2 = 0	882.44	3.53
298.15 K, x2 = 0.1055	865.58	3.025
298.15 K, x2 = 0.2016	850.98	2.681
298.15 K, x2 = 0.3019	836.11	2.366
298.15 K, x2 = 0.398	822.33	2.136
298.15 K, x2 = 0.5006	808.14	1.955
298.15 K, x2 = 0.5953	795.38	1.811
298.15 K, x2 = 0.6911	782.91	1.672
298.15 K, x2 = 0.7985	769.38	1.548
298.15 K, x2 = 0.8888	758.37	1.466
303.15 K, x2 = 0	878.84	3.137
303.15 K, x2 = 0.1055	861.99	2.706
303.15 K, x2 = 0.2016	847.4	2.411
303.15 K, x2 = 0.3019	832.52	2.138
303.15 K, x2 = 0.398	818.74	1.938
303.15 K, x2 = 0.5006	804.55	1.777
303.15 K, x2 = 0.5953	791.78	1.652
303.15 K, x2 = 0.6911	779.31	1.529
303.15 K, x2 = 0.7985	765.77	1.417
303.15 K, x2 = 0.8888	754.75	1.331
308.15 K, x2 = 0	875.25	2.81
308.15 K, x2 = 0.1055	858.41	2.438
308.15 K, x2 = 0.2016	843.81	2.182
308.15 K, x2 = 0.3019	828.94	1.943
308.15 K, x2 = 0.398	815.15	1.766
308.15 K, x2 = 0.5006	800.96	1.624
308.15 K, x2 = 0.5953	788.19	1.513
308.15 K, x2 = 0.6911	775.71	1.405
308.15 K, x2 = 0.7985	762.15	1.305
308.15 K, x2 = 0.8888	751.13	1.223
313.15 K, x2 = 0	871.66	2.532
313.15 K, x2 = 0.1055	854.82	2.209
313.15 K, x2 = 0.2016	840.23	1.985
313.15 K, x2 = 0.3019	825.35	1.776
313.15 K, x2 = 0.398	811.56	1.618
313.15 K, x2 = 0.5006	797.36	1.492
313.15 K, x2 = 0.5953	784.58	1.393
313.15 K, x2 = 0.6911	772.09	1.298
313.15 K, x2 = 0.7985	758.53	1.206
313.15 K, x2 = 0.8888	747.5	1.131
318.15 K, x2 = 0	868.08	2.296
318.15 K, x2 = 0.1055	851.24	2.012
318.15 K, x2 = 0.2016	836.64	1.815
318.15 K, x2 = 0.3019	821.76	1.629
318.15 K, x2 = 0.398	807.96	1.489
318.15 K, x2 = 0.5006	793.76	1.377
318.15 K, x2 = 0.5953	780.98	1.288
318.15 K, x2 = 0.6911	768.48	1.203
318.15 K, x2 = 0.7985	754.91	1.119
318.15 K, x2 = 0.8888	743.86	1.05
323.15 K, x2 = 0	864.5	2.092
323.15 K, x2 = 0.1055	847.66	1.842
323.15 K, x2 = 0.2016	833.06	1.667
323.15 K, x2 = 0.3019	818.17	1.501
323.15 K, x2 = 0.398	804.36	1.376
323.15 K, x2 = 0.5006	790.16	1.275
323.15 K, x2 = 0.5953	777.36	1.195
323.15 K, x2 = 0.6911	764.85	1.119
323.15 K, x2 = 0.7985	751.27	1.041
323.15 K, x2 = 0.8888	740.21	0.978
328.15 K, x2 = 0	860.93	1.915
328.15 K, x2 = 0.1055	844.08	1.693
328.15 K, x2 = 0.2016	829.47	1.536
328.15 K, x2 = 0.3019	814.58	1.389
328.15 K, x2 = 0.398	800.76	1.276
328.15 K, x2 = 0.5006	786.54	1.184
328.15 K, x2 = 0.5953	773.74	1.112
328.15 K, x2 = 0.6911	761.22	1.043
328.15 K, x2 = 0.7985	747.63	0.973
328.15 K, x2 = 0.8888	736.56	0.914
333.15 K, x2 = 0	857.35	1.762
333.15 K, x2 = 0.1055	840.5	1.563
333.15 K, x2 = 0.2016	825.89	1.423
333.15 K, x2 = 0.3019	810.98	1.288
333.15 K, x2 = 0.398	797.16	1.186
333.15 K, x2 = 0.5006	782.93	1.104
333.15 K, x2 = 0.5953	770.11	1.039
333.15 K, x2 = 0.6911	757.59	0.976
333.15 K, x2 = 0.7985	743.98	0.91
333.15 K, x2 = 0.8888	732.9	0.856
